Assay results reported in patent US20250332154A1, “USE OF NAPHTHOQUINE PHOSPHATE IN PREPARATION OF A MEDICAMENT FOR TREATING AUTOIMMUNE DISEASES” (SHANGHAI PHARMACEUTICALS INDUSTRY CO., LTD, priority 2022, published 2025).
Structures can show the parent of a compound that is named as a salt.

Columns and labels:
TNF-α = TNF-α production by LPS-induced RAW264.7 cells (ELISA); assay type: cell-based, mouse; details: for production of TNF-α: LPS-induced RAW264.7, in words; for IC50: Mus musculus, LPS 10 μg/ml, RAW264.7
Method: RAW264.7 cells were inoculated into a 96-well plate at 1×10^5/well and allowed to adhere to the wall for 6 hours in a 37° C., 5% CO2 incubator. […] After the cells adhered to the wall, the stimulant LPS (final concentration: 10 μg/ml) and the gradient-diluted compounds were added. A corresponding stimulation control and a cell control (without stimulation) were set up. After the end of the culture, the cell culture supernatants were collected, and the levels of TNF-α, IL-1β and IL-6 were measured by ELISA.

IL-6 = IL-6 secretion by TLRs-L-stimulated purified mouse B cells (ELISA); assay type: cell-based; details: B-cell, 48 h, stimulant TLR4-L 10 μg/ml
Method: BALB/c mice were sacrificed by cervical dislocation, and spleens were aseptically excised to prepare spleen lymphocytes. The cells were adjusted to 1×10^8 cells/ml, blocked with 2.4G2 (final concentration: 10 μg/ml) for 20 min, cultured with PE-CD19 (final concentration: 5 μg/ml) for 20 min, washed with MACS buffer, centrifuged at 4° C., 300G for 10 min, 100 μl anti-PE beads were added per 1×10^8 cells, incubated with 900 μl MACS buffer for 15 min, washed with MACS buffer, centrifuged at 4° C., 300G for 10 min. The supernatant was discarded. 500 μl MACS buffer was added per 1×10^8 cells to resuspend the cells. MACS column was used for separation. Magnetically labeled cells were retained on the column. The MACS column was removed from the magnetic field and then eluted.
A suspension of purified mouse B cells was inoculated into a 96-well plate at 4×10^5/well. Hydroxychloroquine sulfate was diluted with a 2-fold gradient into 3 concentrations starting from 8 μM: 8, 4 and 2 μM. Naphthoquine phosphate was diluted with a 2-fold gradient into 3 concentrations 0.5 μM.: 0.5, 0.25 and 0.125 μM. […] After the end of the culture, the cell culture supernatants were collected, and the levels of TNF-α, IL-1β, and IL-6 were measured by ELISA.

[1] = system: purified splenic B cells of arthritic mice; assay: TLRs-L-induced activation of purified splenic B cells from treated arthritic mice; assay type: in vivo, mouse; details: intragastric 50, 100 mg/kg, FIG. 6
Method: Normal group, model group, positive medicament (1 mg/kg methotrexate) group, naphthoquine phosphate (50, 100 mg/kg) group, hydroxychloroquine sulfate (100 mg/kg) group.
Same as those described in Example 5.
At the end of the experiment, spleens of mice in each group were collected, and splenic B cells were purified as described in Example 4. Different TLRs-L were used for stimulation. ^3H-TDR incorporation method was used to detect proliferation, ELISA method was used to detect the levels of IL-6 and antibody secretion, and flow cytometry was used to detect the expressions of CD80, CD86, and CD69.
Suspensions of purified mouse B cells from each group were inoculated into a 96-well plate at 4×10^5/well, and the stimulant TLR4-L (final concentration: 10 μg/ml), TLR7-L (final concentration: 5 μg/ml) or TLR9-L (final concentration: 1 μM) was added. […] 5 ml scintillation fluid was added, and the values of radioactive counts per minute were read on a Beta counter (2450 Microplate Counter, PerkinElmer).
Suspensions of purified mouse B cells from each group were inoculated into a 96-well plate at 4×10^5/well, and the stimulant TLR4-L (final concentration: 10 μg/ml), TLR7-L (final concentration: 5 μg/ml) or TLR9-L (final concentration: 1 μM) was added. […] After the end of the culture, the cell culture supernatants were collected, and the level of IL-6 was measured by ELISA. […]

[2] = system: adjuvant-induced arthritis in rats; assay: Adjuvant-induced arthritis in rats: arthritis scoring and foot swelling; assay type: in vivo, rat; details: FIG. 7
anti-nuclear antibodies = assay: Anti-nuclear antibodies in serum of MRL/lpr mice (ANA kit); assay type: in vivo, mouse; details: intragastric 25, 50 mg/kg, FIG. 8
Method: Normal group, model group, positive medicament (1 mg/kg prednisone) group, naphthoquine phosphate (25, 50 mg/kg) group, hydroxychloroquine sulfate (100 mg/kg) group.
At the end of the experiment, eyeballs were removed to collect blood. ELISA method was used to detect the levels of anti-dsDNA antibodies in serum of experimental mice, and the anti-nuclear antibody kit was used to detect the levels of anti-nuclear antibodies. […] (Note: * P value<0.05, ** P value<0.01, *** P value<0.001, compared with model group.)

Compound	production of TNF-α (TNF-α)	IC50 (TNF-α) [µM]	IC50 (IL-6) [µM]	B cell activation, cytokine secretion and antibody production mediated by TLR signaling [1]	clinical arthritis scores of the experimental rats ([2]; intragastric 25, 50, 100 mg/kg)	extent of foot swelling in rats ([2]; intragastric 25, 50, 100 mg/kg)	therapeutic effect in arthritic rats compared with hydroxychloroquine sulfate ([2]; same dose (100 mg/kg))	levels of anti-nuclear antibodies in serum (anti-nuclear antibodies)
CCN(CCO)CCCC(C)Nc1ccnc2cc(Cl)ccc12 (centres unmarked) [Hydroxychloroquine Sulfate, hydroxychloroquine sulfate]	no significant effect	46.3	> 8	–	–	–	–	–
CC(C)(C)NCc1cc(Nc2ccnc3cc(Cl)ccc23)c2c(c1O)CCCC2.O=P(O)(O)O.O=P(O)(O)O [Naphthoquine Phosphate, Naphthoquine phosphate]	no significant effect	> 10	0.5	significantly inhibited	improved	inhibited	superior to that of hydroxychloroquine sulfate at the same dose	significantly reduced
